Measurements published in patent US20240383905A1, “FGFR INHIBITORS AND METHODS OF USE THEREOF” (3H PHARMACEUTICALS CO., LTD., priority 2021, published 2024).

How the values were obtained:
FGFR3 = target: T1, FGFR3 (Homo sapiens, UniProt P22607); assay: FGFR3 Biochemical Caliper Assay (KinEASE-TK kit); conditions: ratio FGFR3/FGFR2 of the biochemical assay
T1 construct: purchased Carna 08-135
Method: (§1) Compounds of the present invention were tested in a FGFR1, FGFR2, and FGFR3 Biochemical Caliper Assay. Enzyme activity was monitored using KinEASE-TK kit (CisBio, Cat.No. 62TK0PEC) according to manufacturer's instructions. […] Final enzyme concentration was 0.2 nM for FGFR1 and FGFR3, 0.07 nM for FGFR2. Compounds were prepared in 10 mM DMSO and serially diluted into 10 concentrations by 3-fold dilution. Prior to the initiation of the reaction by adding TK-substrate/ATP mixture, the compounds were incubated with protein for 10 min at RT. […] Plates were quenched by adding TK-antibody-Cryptate and Sa-XL665 mixture. After 60 min in the stop solution, read the signal on microplate reader (Molecular Devices, i3x), excitation of 320 nm and emission of 615 nm and 665 nm with a […]. IC50 values were calculated using Prism 7 (GraphPad).

SNU16 cells = assay: SNU16 Cancer Cell Line Proliferation Assay (CellTiter-Glo); assay type: cell-based; conditions: Homo sapiens, SNU-16, 72 h
Method: Compounds of the present invention were also tested in a SNU16 Cancer Cell Line Proliferation Assay.
SNU16 cells were plated in 96-well clear bottom/white plate(Costar, Cat.No. 3610) at 5000 cells/well in 100 μl medium. Test compounds were prepared in a 10 mM DMSO stock solution and serially diluted into 9 concentrations by 3-fold dilution. 0.5 μl of each concentration of compound was added into the cell culture plates and DMSO as a control. The plates were incubated for 72 h at 37° C. and 5% CO2 incubator. 50 μl CellTiter-Glo reagent (Promega, G7572) was added into each well and then the plates were shaken gently for 10 min at room temperature. Luminescence was read on microplate reader (Molecular Devices, i3x), IC50 values were calculated using Prism 7 (GraphPad).

FGFR1 = target: T2, FGFR1 (Homo sapiens, UniProt P11362); assay: FGFR1 Biochemical Caliper Assay (KinEASE-TK kit); conditions: ratio FGFR1/FGFR2 of the biochemical assay
T2 construct: purchased Carna 08-133
T2 sequence (P11362 22-822): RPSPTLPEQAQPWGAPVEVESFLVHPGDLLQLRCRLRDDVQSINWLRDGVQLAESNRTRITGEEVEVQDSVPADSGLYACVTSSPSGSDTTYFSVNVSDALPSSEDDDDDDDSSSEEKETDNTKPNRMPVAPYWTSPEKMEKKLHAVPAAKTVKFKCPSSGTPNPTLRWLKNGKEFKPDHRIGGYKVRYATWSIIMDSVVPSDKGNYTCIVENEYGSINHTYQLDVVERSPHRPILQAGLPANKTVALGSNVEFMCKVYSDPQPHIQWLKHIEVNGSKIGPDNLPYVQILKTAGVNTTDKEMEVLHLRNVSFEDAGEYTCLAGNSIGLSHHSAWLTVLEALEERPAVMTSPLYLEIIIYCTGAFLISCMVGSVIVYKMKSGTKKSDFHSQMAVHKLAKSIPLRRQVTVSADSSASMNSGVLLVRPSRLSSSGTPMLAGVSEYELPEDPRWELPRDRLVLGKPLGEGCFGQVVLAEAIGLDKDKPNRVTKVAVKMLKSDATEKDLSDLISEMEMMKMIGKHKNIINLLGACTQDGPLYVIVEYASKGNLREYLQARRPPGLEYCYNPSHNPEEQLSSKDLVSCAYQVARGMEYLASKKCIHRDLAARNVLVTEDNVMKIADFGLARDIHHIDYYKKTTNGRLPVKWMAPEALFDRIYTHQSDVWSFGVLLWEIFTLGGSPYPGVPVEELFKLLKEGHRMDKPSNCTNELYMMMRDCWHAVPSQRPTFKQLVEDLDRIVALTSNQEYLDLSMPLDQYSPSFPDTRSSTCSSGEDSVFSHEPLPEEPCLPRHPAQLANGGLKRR
Method: as §1

FGFR2 = target: T3, FGFR2 (Homo sapiens, UniProt P21802); assay: FGFR2 Biochemical Caliper Assay (KinEASE-TK kit); conditions: 0.07 nM FGFR2; compound incubated with protein 10 min, reaction 45 min at RT; read-out: FGFR2 Cliper IC50
T3 construct: purchased Carna 08-134
T3 sequence (P21802 22-821): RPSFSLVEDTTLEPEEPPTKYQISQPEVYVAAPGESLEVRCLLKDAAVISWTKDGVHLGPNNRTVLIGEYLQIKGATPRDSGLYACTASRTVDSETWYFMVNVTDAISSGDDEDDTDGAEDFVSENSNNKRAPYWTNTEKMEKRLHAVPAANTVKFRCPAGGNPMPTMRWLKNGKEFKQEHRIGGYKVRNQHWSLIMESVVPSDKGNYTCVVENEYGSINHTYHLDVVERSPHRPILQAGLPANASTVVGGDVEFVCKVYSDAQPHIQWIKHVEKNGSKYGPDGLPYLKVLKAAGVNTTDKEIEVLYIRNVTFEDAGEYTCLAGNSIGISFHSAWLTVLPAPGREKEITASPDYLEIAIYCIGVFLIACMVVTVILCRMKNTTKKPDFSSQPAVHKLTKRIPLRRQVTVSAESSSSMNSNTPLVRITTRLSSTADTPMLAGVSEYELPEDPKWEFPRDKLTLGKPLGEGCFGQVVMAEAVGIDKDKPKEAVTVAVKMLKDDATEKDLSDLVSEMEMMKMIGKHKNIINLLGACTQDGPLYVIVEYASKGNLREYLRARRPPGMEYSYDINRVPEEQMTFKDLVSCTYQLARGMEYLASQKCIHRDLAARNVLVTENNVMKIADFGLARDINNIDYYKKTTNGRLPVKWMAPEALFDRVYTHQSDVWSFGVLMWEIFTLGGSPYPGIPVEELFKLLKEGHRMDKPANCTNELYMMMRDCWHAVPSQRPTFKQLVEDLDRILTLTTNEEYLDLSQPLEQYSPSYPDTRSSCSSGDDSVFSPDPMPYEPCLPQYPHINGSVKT
Method: Compounds of the present invention were tested in a FGFR1, FGFR2, and FGFR3 Biochemical Caliper Assay.
as §1, with “Enzyme” for “Compounds of the present invention were tested in a FGFR1, FGFR2, and FGFR3 Biochemical Caliper Assay. Enzyme”

T1 sequence (P22607 23-806): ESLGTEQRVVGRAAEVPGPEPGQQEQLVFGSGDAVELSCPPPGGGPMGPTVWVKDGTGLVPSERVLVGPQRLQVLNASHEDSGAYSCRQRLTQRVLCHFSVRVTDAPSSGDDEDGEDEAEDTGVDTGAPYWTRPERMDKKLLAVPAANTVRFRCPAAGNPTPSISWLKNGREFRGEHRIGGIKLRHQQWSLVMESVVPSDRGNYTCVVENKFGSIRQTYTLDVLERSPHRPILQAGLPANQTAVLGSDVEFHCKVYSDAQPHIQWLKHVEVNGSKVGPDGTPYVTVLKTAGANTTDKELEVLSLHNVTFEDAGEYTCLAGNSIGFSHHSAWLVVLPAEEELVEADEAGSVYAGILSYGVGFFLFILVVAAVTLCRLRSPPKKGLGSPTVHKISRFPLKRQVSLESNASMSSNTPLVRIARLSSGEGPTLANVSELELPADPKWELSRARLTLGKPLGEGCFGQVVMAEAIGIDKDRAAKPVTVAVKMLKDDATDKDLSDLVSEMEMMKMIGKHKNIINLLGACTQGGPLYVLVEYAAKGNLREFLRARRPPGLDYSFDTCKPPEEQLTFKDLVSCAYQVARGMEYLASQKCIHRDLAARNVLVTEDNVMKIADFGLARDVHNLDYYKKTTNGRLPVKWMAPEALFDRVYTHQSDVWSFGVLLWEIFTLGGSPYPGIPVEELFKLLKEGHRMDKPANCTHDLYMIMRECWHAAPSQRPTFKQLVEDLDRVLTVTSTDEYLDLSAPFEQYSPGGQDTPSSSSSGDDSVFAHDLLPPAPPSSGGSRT

IC50 (SNU16 cells)	IC50 (FGFR2)	Compound	Selectivity FGFR3/FGFR2 (FGFR3)	Selectivity FGFR1/FGFR2 (FGFR1)
≤ 10 nM	< 5 nM	C=C(F)C(=O)Nc1ccc(-c2c(-c3ccc(C(=O)NC4CC4)c(OC)c3)c3c(N)ncc(C#N)c3n2C)c(OC)c1 [Compound 171, 4-(4-amino-7-cyano-2-(4-(2-fluoroacrylamido)-2-methoxyphenyl)-1-methyl-1H-pyrrolo[3,2-c]pyridin-3-yl)-N-cyclopropyl-2-methoxybenzamide]	B (Selectivity of FGFR3/FGFR2 less than 100 but greater than or equal to 25)	C (Selectivity of FGFR1/FGFR2 less than 200 but greater than or equal to 100)
≤ 10 nM	< 5 nM	C=CC(=O)Nc1ccc(-c2[nH]c3c(C#N)cnc(N)c3c2-c2ccc(C(=O)NC3CC3)c(OC)c2)cc1 [Compound 23, 4-(2-(4-acrylamidophenyl)-4-amino-7-cyano-1H-pyrrolo[3,2-c]pyridin-3-yl)-N-cyclopropyl-2-methoxybenzamide]	A (Selectivity of FGFR3/FGFR2 less than 150 but greater than or equal to 100)	A+ (Selectivity of FGFR1/FGFR2 greater or equal to 500)
≤ 10 nM	< 5 nM	C=CC(=O)Nc1ccc(-c2c(-c3ccc(Oc4nccc(C)n4)cc3)c3c(N)ncc(C#N)c3n2C)cc1 [Compound 69, N-(4-(4-amino-7-cyano-1-methyl-3-(4-((4-methylpyrimidin-2-yl)oxy)phenyl)-1H-pyrrolo[3,2-c]pyridin-2-yl)phenyl)acrylamide]	B (Selectivity of FGFR3/FGFR2 less than 100 but greater than or equal to 25)	A (Selectivity of FGFR1/FGFR2 less than 500 but greater than or equal to 300)
≤ 10 nM	< 5 nM	C=CC(=O)Nc1ccc(-c2nn3ncnc(N)c3c2-c2ccc(C(=O)NC3CCC3)c(OC)c2)cc1 [Compound 26, 4-(6-(4-acrylamidophenyl)-4-aminopyrazolo[5,1-f][1,2,4]triazin-5-yl)-N-cyclobutyl-2-methoxybenzamide]	B (Selectivity of FGFR3/FGFR2 less than 100 but greater than or equal to 25)	A (Selectivity of FGFR1/FGFR2 less than 500 but greater than or equal to 300)
≤ 10 nM	< 5 nM	C=C(F)C(=O)Nc1ccc(-c2nn3ncnc(N)c3c2-c2ccc(C(=O)NC3(C(F)(F)F)CC3)c(OC)c2)c(C(F)(F)F)c1 [Compound 432]	B (Selectivity of FGFR3/FGFR2 less than 100 but greater than or equal to 25)	B (Selectivity of FGFR1/FGFR2 less than 300 but greater than or equal to 200)
≤ 10 nM	< 5 nM	C=CC(=O)Nc1ccc(-c2nn3ncnc(N)c3c2-c2ccc(C(=O)NC3CC(F)C3)c(OC)c2)cc1 (stereo not drawn) [Compound 184, 4-(6-(4-acrylamidophenyl)-4-aminopyrazolo[5,1-f][1,2,4]triazin-5-yl)-N-(3-fluorocyclobutyl)-2-methoxybenzamide]	A+ (Selectivity of FGFR3/FGFR2 greater or equal to 150)	A (Selectivity of FGFR1/FGFR2 less than 500 but greater than or equal to 300)
≤ 10 nM	< 5 nM	C=CC(=O)Nc1ccc(-c2nn3ncnc(N)c3c2-c2ccc(C(=O)NCC3(C#N)CC3)c(OC)c2)cc1 [Compound 47, 4-(6-(4-acrylamidophenyl)-4-aminopyrazolo[5,1-f] [1,2,4]triazin-5-yl)-N-((1-cyanocyclopropyl)methyl)-2-methoxybenzamide]	B (Selectivity of FGFR3/FGFR2 less than 100 but greater than or equal to 25)	B (Selectivity of FGFR1/FGFR2 less than 300 but greater than or equal to 200)
≤ 10 nM	< 5 nM	C=CC(=O)Nc1ccc(-c2c(-c3ccc(C(=O)NCC4CC4)c(OC)c3)c3c(N)ncc(C#N)c3n2C)cc1 [Compound 170]	B (Selectivity of FGFR3/FGFR2 less than 100 but greater than or equal to 25)	A+ (Selectivity of FGFR1/FGFR2 greater or equal to 500)
	> 10 nM	C=CC(=O)Nc1ccc(-c2nn3ncnc(N)c3c2-c2ccc(Oc3ncc(C)cn3)c(F)c2)cc1 [Compound 376, N-(4-(4-amino-5-(3-fluoro-4-((5-methylpyrimidin-2-yl)oxy)phenyl)pyrazolo [5,1-f][1,2,4]triazin-6-yl)phenyl)acrylamide]	A+ (Selectivity of FGFR3/FGFR2 greater or equal to 150)	A+ (Selectivity of FGFR1/FGFR2 greater or equal to 500)
≤ 10 nM	< 5 nM	C=CC(=O)Nc1ccc(-c2c(-c3ccc(C(=O)NC4CC4)c(OC)c3)c3c(N)ncc(C#N)c3n2CCF)cc1 [Compound 236, 4-(2-(4-acrylamidophenyl)-4-amino-7-cyano-1-(2-fluoroethyl)-1H-pyrrolo[3,2-c]pyridin-3-yl)-N-cyclopropyl-2-methoxybenzamide]	A (Selectivity of FGFR3/FGFR2 less than 150 but greater than or equal to 100)	A+ (Selectivity of FGFR1/FGFR2 greater or equal to 500)
	> 10 nM	C=CC(=O)Nc1ccc(-c2c(-c3ccc(C(=O)NC4CC4)c(OC)c3)c3c(N)ncc(C#N)c3n2C2CC2)cc1 [Compound 359, 4-(2-(4-acrylamidophenyl)-4-amino-7-cyano-1-cyclopropyl-1H-pyrrolo[3,2-c]pyridin-3-yl)-N-cyclopropyl-2-methoxybenzamide]	B (Selectivity of FGFR3/FGFR2 less than 100 but greater than or equal to 25)	A+ (Selectivity of FGFR1/FGFR2 greater or equal to 500)
	< 5 nM	C=C(F)C(=O)Nc1ccc(-c2[nH]c3c(C#N)cnc(N)c3c2-c2ccc(C(=O)NC3CC3(F)F)c(OC)c2)cc1 (stereo not drawn) [Compound 320, 4-(4-amino-7-cyano-2-(4-(2-fluoroacrylamido)phe-nyl)-1H-pyrrolo[3,2-c]pyridin-3-yl)-N-(2,2-difluorocyclopropyl)-2-methoxybenzamide]	A (Selectivity of FGFR3/FGFR2 less than 150 but greater than or equal to 100)	C (Selectivity of FGFR1/FGFR2 less than 200 but greater than or equal to 100)
	5 to 10 nM	C=CC(=O)Nc1ccc(-c2nn3ncnc(N)c3c2-c2ccc(C(=O)NC3(C#N)CC3)c(OC)c2)cc1 [Compound 268, 4-(6-(4-acrylamidophenyl)-4-aminopyrazolo[5,1-f][1,2,4]triazin-5-yl)-N-(1-cyanocyclopropyl)-2-methoxybenzamide]	A+ (Selectivity of FGFR3/FGFR2 greater or equal to 150)	C (Selectivity of FGFR1/FGFR2 less than 200 but greater than or equal to 100)
	> 10 nM	C=C(F)C(=O)Nc1ccc(-c2nn3ncnc(N)c3c2-c2ccc(C(=O)NCC(C)(F)F)c(OC)c2)cc1 [Compound 362, 4-(4-amino-6-(4-(2-fluoroacrylamido)phe-nyl)pyrazolo[5,1-f][1,2,4]triazin-5-yl)-N-(2,2-difluoropropyl)-2-methoxybenzamide]	A (Selectivity of FGFR3/FGFR2 less than 150 but greater than or equal to 100)	A+ (Selectivity of FGFR1/FGFR2 greater or equal to 500)
